# Data from article PMC8330742, “New benzothieno[2,3-c]pyridines as non-steroidal CYP17 inhibitors: design, synthesis, anticancer screening, apoptosis induction, and in silico ADME profile studies” (Journal of Enzyme Inhibition and Medicinal Chemistry, 2021).
# Columns and labels:
# SF-295 = test: NCI-60 SRB screen; format: cell-based, human; details: SF-295;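 as to IC50: half-maximal inhibitory concentration read as cell viability unlike GI50 net growth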
# LOX IMVI = test: NCI-60 SRB screen; format: cell-based, human;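 as to IC50: half-maximal inhibitory concentration read as cell viability unlike GI50 net growth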
# MALME-3M = test: NCI-60 SRB screen; format: cell-based, human;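 as to IC50: half-maximal inhibitory concentration read as cell viability unlike GI50 net growth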
# M14 = test: NCI-60 SRB screen; format: cell-based, human; details: M14;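 as to IC50: half-maximal inhibitory concentration read as cell viability unlike GI50 net growth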
# MDA-MB-435 = test: NCI-60 SRB screen; format: cell-based
# SK-MEL-2 = test: NCI-60 SRB screen; format: cell-based, human; details: SK-MEL-2
# SK-MEL-28 = test: NCI-60 SRB screen; format: cell-based; details: SK-MEL-28
# SK-MEL-5 = test: NCI-60 SRB screen; format: cell-based, human; details: SK-MEL-5
# UACC-257 = test: NCI-60 SRB screen; format: cell-based, human; details: UACC-257
# UACC-62 = test: NCI-60 SRB screen; format: cell-based, human; details: UACC-62
# IGROV1 = test: NCI-60 SRB screen; format: cell-based, human; details: IGROV1
# OVCAR-3 = test: NCI-60 SRB screen; format: cell-based, human; details: OVCAR-3
# OVCAR-4 = test: NCI-60 SRB screen; format: cell-based, human; details: OVCAR-4
# NCI/ADR-RES = test: NCI-60 SRB screen; format: cell-based, human
# SK-OV-3 = test: NCI-60 SRB screen; format: cell-based, human; details: SK-OV-3
# 786-0 = test: NCI-60 SRB screen; format: cell-based; details: 786-0
# ACHN = test: NCI-60 SRB screen; format: cell-based
# CAKI-1 = test: NCI-60 SRB screen; format: cell-based, human; details: CAKI-1
# RXF 393 = test: NCI-60 SRB screen; format: cell-based, human; details: RXF 393
# SN12C = test: NCI-60 SRB screen; format: cell-based, human; details: SN12C
# TK-10 = test: NCI-60 SRB screen; format: cell-based, human; details: TK-10
# UO-31 = test: NCI-60 SRB screen; format: cell-based, human; details: UO-31
# [1] = system: panel of 60 cancer cell lines; test: NCI-60 SRB screen, mean or range over the panel; format: cell-based, human; details: Homo sapiens
# [2] = Homo sapiens, single dose 10^−5 M, read-out: Growth inhibition (%)
# [3] = Homo sapiens, IGROV-1, five dose
smiles,measurement,setting,value
"N#CC1C(=O)NC(c2ccccc2[N+](=O)[O-])c2sc3c(F)cccc3c21 (stereo not shown) [Compound 5c, 4-Cyano-8-fluoro-1-(2-nitrophenyl)-1,2-dihydro[1]benzothieno[2,3-c] pyridin-3(4H)-one]",GI50,"SF-295; Homo sapiens, five dose",0.6 µM
same,IC50,"SF-295; Homo sapiens, five dose",10.5 µM
same,inhibition at 10 µM,SF-295; [2],79.2%
same,TGI,SF-295; five dose,100 µM
same,GI50,"LOX IMVI; Homo sapiens, five dose",15.3 µM
same,IC50,"LOX IMVI; Homo sapiens, five dose",25.1 µM
same,inhibition at 10 µM,LOX IMVI; [2],8.64%
same,TGI,LOX IMVI; five dose,73.20 µM
same,GI50,"MALME-3M; Homo sapiens, five dose",22.6 µM
same,IC50,"MALME-3M; Homo sapiens, five dose",83.2 µM
same,inhibition at 10 µM,MALME-3M; [2],25.3%
same,TGI,MALME-3M; five dose,100 µM
same,GI50,"M14; Homo sapiens, five dose",16.3 µM
same,IC50,"M14; Homo sapiens, five dose",28.2 µM
same,inhibition at 10 µM,M14; [2],7.3%
same,TGI,M14; five dose,100 µM
same,GI50,"MDA-MB-435; Homo sapiens, MDA-MB-435",27.2 µM
same,IC50,"MDA-MB-435; Homo sapiens, MDA-MB-435",38 µM
same,inhibition at 10 µM,"MDA-MB-435; Homo sapiens, MDA-MB-435, read-out: Growth inhibition (%)",-1.7%
same,LC50 (50% lethal concentration),"MDA-MB-435; Homo sapiens, MDA-MB-435, five dose",> 100 µM
same,TGI,"MDA-MB-435; MDA-MB-435, five dose",100 µM
same,GI50,"SK-MEL-2; Homo sapiens, five dose",12.7 µM
same,IC50,"SK-MEL-2; Homo sapiens, five dose",33.9 µM
same,inhibition at 10 µM,SK-MEL-2; [2],7.4%
same,TGI,SK-MEL-2; five dose,100 µM
same,GI50,"SK-MEL-28; Homo sapiens, five dose",31.2 µM
same,IC50,"SK-MEL-28; Homo sapiens, five dose",66.1 µM
same,LC50 (50% lethal concentration),"SK-MEL-28; Homo sapiens, five dose",> 100 µM
same,inhibition at 10 µM,SK-MEL-28; [2],-10.6%
same,TGI,SK-MEL-28; five dose,100 µM
same,GI50,"SK-MEL-5; Homo sapiens, five dose",13 µM
same,IC50,"SK-MEL-5; Homo sapiens, five dose",20.9 µM
same,inhibition at 10 µM,SK-MEL-5; [2],24.9%
same,TGI,SK-MEL-5; five dose,67.60 µM
same,inhibition at 10 µM,"UACC-257; Homo sapiens, UACC-275 (so in the source), single dose 10^−5 M, read-out: Growth inhibition (%)",137%
same,GI50,"UACC-257; Homo sapiens, five dose",1.73 µM
same,IC50,"UACC-257; Homo sapiens, five dose",5.89 µM
same,TGI,UACC-257; five dose,100 µM
same,GI50,"UACC-62; Homo sapiens, five dose",0.36 µM
same,IC50,"UACC-62; Homo sapiens, five dose",1.78 µM
same,inhibition at 10 µM,UACC-62; [2],90.6%
same,TGI,UACC-62; five dose,47.20 µM
same,GI50,IGROV1; [3],0.004 µM
same,IC50,IGROV1; [3],0.178 µM
same,inhibition at 10 µM,"IGROV1; Homo sapiens, IGROV-1, single dose 10^−5 M, read-out: Growth inhibition (%)",99.7%
same,TGI,IGROV1; five dose,100 µM
same,GI50,"OVCAR-3; Homo sapiens, five dose",0.32 µM
same,IC50,"OVCAR-3; Homo sapiens, five dose",0.676 µM
same,inhibition at 10 µM,OVCAR-3; [2],114%
same,TGI,OVCAR-3; five dose,87.80 µM
same,GI50,"OVCAR-4; Homo sapiens, five dose",1.61 µM
same,IC50,"OVCAR-4; Homo sapiens, five dose",24.5 µM
same,inhibition at 10 µM,OVCAR-4; [2],100%
same,TGI,OVCAR-4; five dose,100 µM
same,GI50,"NCI/ADR-RES; Homo sapiens, five dose",8.21 µM
same,IC50,"NCI/ADR-RES; Homo sapiens, five dose",16.6 µM
same,inhibition at 10 µM,NCI/ADR-RES; [2],31.5%
same,TGI,NCI/ADR-RES; five dose,100 µM
same,GI50,"SK-OV-3; Homo sapiens, five dose",12 µM
same,IC50,"SK-OV-3; Homo sapiens, five dose",44.7 µM
same,inhibition at 10 µM,SK-OV-3; [2],28.2%
same,TGI,SK-OV-3; five dose,100 µM
same,TGI,786-0; five dose,100 µM
same,GI50,"786-0; Homo sapiens, five dose",37 µM
same,IC50,"786-0; Homo sapiens, five dose",77.6 µM
same,LC50,"786-0; Homo sapiens, five dose",> 100 µM
same,inhibition at 10 µM,786-0; [2],10%
same,GI50,"ACHN; Homo sapiens, five dose",15.7 µM
same,IC50,"ACHN; Homo sapiens, five dose",29.5 µM
same,"LC50 (NCI-60 lethal concentration, 50% net cell kill)","ACHN; Homo sapiens, five dose",> 100 µM
same,inhibition at 10 µM,ACHN; [2],34.3%
same,TGI,ACHN; five dose,100 µM
same,TGI,CAKI-1; five dose,100 µM
same,GI50,"CAKI-1; Homo sapiens, five dose",0.17 µM
same,IC50,"CAKI-1; Homo sapiens, five dose",0.562 µM
same,inhibition at 10 µM,CAKI-1; [2],94.7%
same,GI50,"RXF 393; Homo sapiens, five dose",11.3 µM
same,IC50,"RXF 393; Homo sapiens, five dose",37.2 µM
same,inhibition at 10 µM,RXF 393; [2],30.1%
same,TGI,RXF 393; five dose,100 µM
same,inhibition at 10 µM,"SN12C; Homo sapiens, SN 12 C, single dose 10^−5 M, read-out: Growth inhibition (%)",20.9%
same,GI50,"SN12C; Homo sapiens, five dose",18.6 µM
same,IC50,"SN12C; Homo sapiens, five dose",34.7 µM
same,TGI,SN12C; five dose,100 µM
same,GI50,"TK-10; Homo sapiens, five dose",17.7 µM
same,IC50,"TK-10; Homo sapiens, five dose",72.4 µM
same,inhibition at 10 µM,TK-10; [2],58.9%
same,TGI,TK-10; five dose,100 µM
same,GI50,"UO-31; Homo sapiens, five dose",10.7 µM
same,IC50,"UO-31; Homo sapiens, five dose",19.5 µM
same,inhibition at 10 µM,UO-31; [2],46.2%
same,TGI,UO-31; five dose,55.20 µM
same,GI50,"[1]; mean graph midpoint over all tested cell lines, five dose, read-out: MG-MID GI50",0.21 µM
same,inhibition at 10 µM,"[1]; mean over the cell lines, single dose 10^−5 M, read-out: Mean growth inhibition (%)",46.9%
